Test results taken from patent US9085576B2 (AMGEN INC., priority 2013, dated 2015).

Tests used:
BACE1 [1] = biological target: BACE1 (Homo sapiens (Human), UniProt P56817); conditions: cited from earlier work
BACE1 [2] = conditions: animals, orally available; cited from earlier work
[3] = system: pigment epithelium of the rat's eye; conditions: higher compound dose given for three months; cited from earlier work
[4] = biological target: Beta Secretase enzyme (BACE) (Homo sapiens (Human), UniProt P56817); assay: In vitro enzymatic BACE FRET assay; format: biochemical; conditions: read-out: BACE1 Enzyme assay IC50
Beta Secretase enzyme (BACE), sequence (P56817 46-501): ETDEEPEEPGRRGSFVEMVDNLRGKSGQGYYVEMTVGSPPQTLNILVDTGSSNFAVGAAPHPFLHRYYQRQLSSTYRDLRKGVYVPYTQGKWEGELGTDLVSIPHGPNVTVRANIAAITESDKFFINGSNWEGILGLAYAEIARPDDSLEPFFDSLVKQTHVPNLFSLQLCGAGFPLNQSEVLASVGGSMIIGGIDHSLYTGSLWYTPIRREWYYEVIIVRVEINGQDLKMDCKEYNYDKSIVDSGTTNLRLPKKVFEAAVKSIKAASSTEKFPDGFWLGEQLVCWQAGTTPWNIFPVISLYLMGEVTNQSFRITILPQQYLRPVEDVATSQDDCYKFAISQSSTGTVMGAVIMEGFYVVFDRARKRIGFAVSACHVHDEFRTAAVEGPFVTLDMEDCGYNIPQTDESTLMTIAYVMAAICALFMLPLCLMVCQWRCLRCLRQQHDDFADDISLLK

Cathepsin D (Cat D) = Cathepsin D (Cat D) (Homo sapiens (Human), UniProt P07339); assay: In vitro enzymatic Cathepsin D (Cat D) FRET assay; format: biochemical; conditions: read-out: CatD IC50
Cathepsin D (Cat D), sequence (P07339 65-412, species assumed): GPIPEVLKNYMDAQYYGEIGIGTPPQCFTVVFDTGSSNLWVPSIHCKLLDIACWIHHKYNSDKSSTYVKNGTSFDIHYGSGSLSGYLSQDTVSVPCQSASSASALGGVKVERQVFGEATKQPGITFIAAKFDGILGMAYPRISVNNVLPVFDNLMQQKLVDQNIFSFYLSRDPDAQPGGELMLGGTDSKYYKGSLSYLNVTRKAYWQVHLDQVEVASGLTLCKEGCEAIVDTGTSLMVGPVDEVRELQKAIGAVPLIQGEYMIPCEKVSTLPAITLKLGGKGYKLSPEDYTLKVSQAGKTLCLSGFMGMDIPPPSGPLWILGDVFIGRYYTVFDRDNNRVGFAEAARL

Abeta 40 = assay: In vivo inhibition of beta-secretase: Abeta 40 reduction in CSF and brain of the rat; conditions: after 4 hrs; for % reduction of rat CSF levels at 10 pmk / % reduction of rat brain levels at 10 mpk: 10 mpk
BACE = BACE (Homo sapiens (Human), UniProt P56817); assay: In vitro BACE cell-based assay (Aβ40 in conditioned medium, sandwich ELISA)
BACE, sequence (P56817 46-501, species assumed): as the sequence (P56817 46-501) above

BACE1 (Homo sapiens (Human), UniProt P56817), sequence (P56817 46-501): as above

Row | Structure (SMILES) | IC50 [4] [µM] | IC50 (Cathepsin D (Cat D)) [µM] | IC50 (BACE) [µM] | Aβ reductions in lumbar CSF (BACE1 [1]; healthy volunteers, oral dosing of 30 or 90 mg) | safety and tolerability (BACE1 [1]; healthy volunteers) | Aβ-lowering effects (BACE1 [2]) | eye assessments (BACE1 [1]; people of the terminated Ph I dosing trial) | eye toxicity finding [3] | % reduction of rat CSF levels at 10 pmk (Abeta 40; Abeta 40 in rat CSF) [%] | % reduction of rat brain levels at 10 mpk (Abeta 40; Abeta 40 in rat brain) [%] | % reduction of rat CSF levels (3 mpk) (Abeta 40; Abeta 40 in rat CSF, 3 mpk) | % reduction of rat brain levels (3 mpk) (Abeta 40; Abeta 40 in rat brain, 3 mpk)
1 | C[C@@]1(c2cc(-c3cncnc3)c(F)cc2F)CCSC(N)=N1 [LY2811376, (S)-4-(2,4-difluoro-5-pyrimidin-5-yl-phenyl)-4-methyl-5,6-dihydro-4H-[1,3]thiazin-2-ylamine] | – | – | – | Prominent and long-lasting Aβ reductions | safe and well tolerated | profound Aβ-lowering effects | – | – | – | – | – | –
2 | C[C@@]1(c2cc(-c3cncnc3)c(F)cc2F)CCSC(N)=N1 [LY 2811376] | – | – | – | – | – | – | did not show any abnormalities | damaged the pigment epithelium of the rat's eye | – | – | – | –
3 | NC1=N[C@@](c2cc(NC(=O)c3cnc(OCC4CC4)cn3)ccc2F)(C(F)F)[C@H]2C[C@H]2O1 [Example 415, N-(3-((1R,5S,6R)-3-amino-5-(difluoromethyl)-2-oxa-4-azabicyclo[4.1.0]hept-3-en-5-yl)-4-fluorophenyl)-5-(cyclopropylmethoxy)pyrazine-2-carboxamide] | 0.043 | 747 | 0.0551 | – | – | – | – | – | 27 | 14 | – | –
4 | COc1cnc(C(=O)Nc2cc(C)c(F)c([C@@]3(C(F)F)N=C(N)O[C@@H]4C[C@@H]43)c2)cn1 [Example 299, N-(3-((1R,5S,6R)-3-amino-5-(difluoromethyl)-2-oxa-4-azabicyclo[4.1.0]hept-3-en-5-yl)-4-fluoro-5-methylphenyl)-5-methoxypyrazine-2-carboxamide] | 0.0305 | 465 | 0.014 | – | – | – | – | – | 74 | 62 | – | –

Now from value to molecule, other results behind:

Row | IC50 [4] [µM] | IC50 (Cathepsin D (Cat D)) [µM] | IC50 (BACE) [µM] | Structure (SMILES) | Aβ reductions in lumbar CSF (BACE1 [1]; healthy volunteers, oral dosing of 30 or 90 mg) | safety and tolerability (BACE1 [1]; healthy volunteers) | Aβ-lowering effects (BACE1 [2]) | eye assessments (BACE1 [1]; people of the terminated Ph I dosing trial) | eye toxicity finding [3] | % reduction of rat CSF levels at 10 pmk (Abeta 40; Abeta 40 in rat CSF) [%] | % reduction of rat brain levels at 10 mpk (Abeta 40; Abeta 40 in rat brain) [%] | % reduction of rat CSF levels (3 mpk) (Abeta 40; Abeta 40 in rat CSF, 3 mpk) | % reduction of rat brain levels (3 mpk) (Abeta 40; Abeta 40 in rat brain, 3 mpk)
5 | 0.0377 | 442 | 0.0179 | NC1=N[C@@](c2cc(NC(=O)c3ccc(OC(F)F)cn3)ccc2F)(C(F)F)[C@H]2C[C@H]2O1 [Example 312, N-(3-((1R,5S,6R)-3-amino-5-(difluoromethyl)-2-oxa-4-azabicyclo[4.1.0]hept-3-en-5-yl)-4-fluorophenyl)-5-(difluoromethoxy) picolinamide] | – | – | – | – | – | 30 | −1 | – | –
6 | 0.0352 | 1270 | 0.0069 | N#Cc1cnc(C(=O)Nc2ccc(F)c([C@@]3(C(F)F)N=C(N)O[C@@H]4C[C@@H]43)c2)c(F)c1 [Example 388, N-(3-((1R,5S,6R)-3-amino-5-(difluoromethyl)-2-oxa-4-azabicyclo[4.1.0]hept-3-en-5-yl)-4-fluorophenyl)-5-cyano-3-fluoropicolinamide] | – | – | – | – | – | 21 | 4 | – | –
7 | 0.031 | 1580 | 0.0075 | Cc1cc(C#N)cnc1C(=O)Nc1ccc(Cl)c([C@@]2(CF)N=C(N)O[C@@H]3C[C@@H]32)c1 [Example 283, N-(3-((1R,5S,6R)-3-amino-5-(fluoromethyl)-2-oxa-4-azabicyclo[4.1.0]hept-3-en-5-yl)-4-chlorophenyl)-5-cyano-3-methylpicolinamide] | – | – | – | – | – | 75 | 69 | 61 (3 mpk) % | 44 (3 mpk) %
8 | 0.0214 | 5920 | 0.0178 | NC1=N[C@@](c2cc(NC(=O)c3cnc(OC(F)F)cn3)ccc2F)(C(F)F)[C@H]2C[C@H]2O1 [Example 238, N-(3-((1R,5S,6R)-3-amino-5-(difluoromethyl)-2-oxa-4-azabicyclo[4.1.0]hept-3-en-5-yl)-4-fluorophenyl)-5-(difluoromethoxy) pyrazine-2-carboxamide] | – | – | – | – | – | 8 | 16 | – | –
9 | 0.0395 | 997 | 0.0078 | N#Cc1cnc(C(=O)Nc2ccc(Cl)c([C@@]3(CF)N=C(N)O[C@@H]4C[C@@H]43)c2)c(Cl)c1 [Example 127] | – | – | – | – | – | 67 | 50 | – | –
